The values below come from publication PMC7153278, “Discovery of Membrane-Bound Pyrophosphatase Inhibitors Derived from an Isoxazole Fragment” (ACS Medicinal Chemistry Letters, 2020).

Data set [1] deals with Thermotoga maritima mPPase (TmPPase) (Thermotoga maritima, UniProt Q9S5X0). Description: TmPPase inhibition assay (96-well plate, orthophosphate determination). The class given is biochemical. The following applies: for LE (ligand efficiency): computed using the pIC50 and the Heavy Atom Count (LEHA) normalization method, Discovery Studio; for IC50 [CI95%] / IC50: purified TmPPase. As for the experimental part: The inhibition assay was measured in 96 well plate assay as previously reported.5,6 Briefly, 1 µL of purified TmPPase (13 mg/mL) was reactivated in 99 µL of reactivation buffer (20 mM 2-(N-morpholino) ethanesulfonic acid (MES) pH 6.5, 3.5% (v/v) glycerol, 2 mM dithiothreitol (DTT), 4.5% dodecyl maltoside (DDM) and 12 mg/mL L-α-phosphatidylcholine from soybean) and incubated at 55 °C for 15 min. For the assay, to each tube strips, 0.2 µL of the reactivated enzyme was added to 14.8 µL of reaction buffer (200 mM Tris-Cl pH 8.0, 8.0 mM MgCl2, 333 mM KCl, and 67 mM NaCl) and 25 µL of inhibitor. The reaction mixtures were sealed with an adhesive sealing sheet (Thermo Scientific) and incubated at 71 °C for 5 min. The reactions were started with the addition of 10 µL of 2 mM sodium pyrophosphate, further incubation at 71 °C for 5 min and stopped by placing the reaction mixtures on ice for 10 min. The color development was done with the addition of ammonium heptamolybdate + ascorbic acid solution on ice for 10 min and then 90 µL of arsenic solution, at room temperature, for a minimum of 30 min. 180 µL of each reaction mixtures was then transferred into a clear 96 well polystyrene microplate and the absorbance was measured at 860 nm using a microplate spectrophotometer (MultiSkan Go, Thermo Scientific). The pilot inhibitor screening of 16 phosphate-mimicking fragments was done at 100 μM inhibitor concentration. Further screening was done with three different concentrations; 1 μM, 5 μM and 50 μM for soluble compounds, and 1 μM, 5 μM, and 20 μM for sparingly soluble compounds.6 The best hits were validated using 8 concentrations in triplicate in TmPPase.
The potent hits 12k and 12l compounds were then tested on the P. falciparum (PfPPase-VP1) membrane fractions expressed in baculovirus-infected insect cells (the expression method and further enzyme analysis will be described in more detail elsewhere). Briefly, to each tube strips, 2.4 µL of PfPPase-VP1 membrane fraction (5 mg/mL) was added into 12.6 µL of reaction buffer (200 mM Tris-Cl pH 8.0, 8.0 mM MgCl2, 333 mM KCl, 67 mM NaCl, 3.3 mM NaF, and 17 μM Gramicidin D) and 25 µL of inhibitor. The reaction mixtures were incubated at 30 °C for 5 min and the assay was started by the addition of 10 µL of 2 mM sodium pyrophosphate and further incubation at 30 °C for 10 min. The reaction termination and color development were done as before.
The in vitro anti-plasmodial activity assay strain 3D7 was maintained in culture as described previously.7 Briefly, parasites were cultured in O+ human erythrocytes at 5% haematocrit in RPMI - 1640 medium supplemented with 0.5% Albumax II (Gibco, Carlsbad, CA, USA), 200 μM hypoxanthine (Sigma, St. Louis, MO, USA) and 20 μg/mL gentamycin (Gibco). Parasites were synchronized with the sorbitol method as described. 8 Test compound was dissolved in DMSO to make a stock solution of 10 mM. Two -fold serial dilutions of the test compound were made in the culture medium to cover the range of 400 µM – 400 nM. Fifty microliters of each dilution were mixed in 96 well plate with 150 µL of 2% haematocrit of 0.5% parasitemia (ring stage). DMSO concentration in the highest compound concentration w as 0.1%. After 72 h incubation at 37 °C, the parasite growth was quantified using fluorescent SYBR Green I ® -based assay as described. 9 The half-maximal inhibitory concentration (IC 50) of the test compound was assessed using the non-linear regression fit model in Prism 7 (GraphPad Software). The potent anti-malarial drug, artemisinin, was use in parallel as a positive control. Each concentration of the test compound was tested in duplicate and the assay was repeated three times. The mean and standard deviation of the three repeats were used to estimate the IC50.
IC50 determinations were done using R 3.6.110 and the n-parameter logistic regression (nplr) package11 version 0.1-7. In this package, the weighted nplr, given x (compound concentrations) and […]

Data set [2] is described as follows: Colloidal aggregation under TmPPase assay conditions (nephelometry). The format is physicochemical. As for the experimental part: Aggregation data for 5, 12k and 12l (Figure S1)
Potential colloidal aggregation in the TmPPase model system was studied at five concentrations (50 µM, 25 µM, 10 µM, 5 µM, and 1 µM). The original assay conditions were simulated, and the light scattering of potential aggregates in the mixture was studied by nephelometric methods using Nepheloskan Ascent® (Labsystems, Finland). Aggregation of the blank and compounds 5, 12k and 12l were measured as triplicates from one independent experiment at three different voltages (300 V, 400 V and 500 V) at room temperature.
5 µM and 1 µM concentrations the obtained values were close to those observed by the blank, thereby […]
Figure S1. Aggregation data for compounds 5, 12k and 12l. The data, measured in relative nephelometric units (RNU), is shown as the mean ± SD and normalized to the blank.
(1 picture or pasted object on this page, not shown here)
Experimental procedures and characterization data
Commercial analogues were retrieved by screening the ZINC12 database1 (clean drug-like subset; downloaded on 27.04.2016) using a KNIME2 workflow connected to the RDKit3 nodes. The SAR analyses and docking studies (data not shown) underlying this work were conducted using the Schrödinger molecular modeling platform (Canvas and Glide modules, respectively)4 .
Compounds 1–7, 13–20 and 24 were obtained from commercial suppliers. Supporting Information, Table S1 summarizes the compounds tested. Compound purity was >95% as determined by LC-MS and characterized by HRMS. For all commercial compounds after the initial screen, purity was tested independently from the vendor specification (a few compounds of lower purity are reported only in Supporting Information). To evaluate potential aggregation of samples in the TmPPase based assay, aggregate formation in the assay conditions was studied at five concentrations (50 μM, 25 μM, 10 μM, 5 μM, and 1 μM) for compounds 5, 12k and 12l (Figure S1).
All chemicals used were commercially available. Reactions using anhydrous conditions were conducted in oven-dried (130 °C, >24 h) glassware, purged with argon prior to use. Microwave reactions were performed using a Biotage Initiator+ instrument (Uppsala, Sweden). The progress of the reactions was monitored by thin-layer chromatography on silica gel 60-F254 aluminum plates and visualized by using a dual short/long wave (254/366 nm) UV lamp. The combined organic solutions from extractions were dried over anhydrous Na2SO4, filtered and concentrated with a rotary evaporator at reduced pressure. Flash SiO2 column chromatography was performed with automated high performance flash chromatography, Biotage Isolera™ Spektra Systems with ACI™ and Assist (ISO-1SW Isolera One) equipped with a variable UV-VIS (200–800 nm) photodiode array (Uppsala, Sweden) using SNAP KP-SIL/Ultra 10 g or 25 g cartridges and the indicated mobile phase gradient.
The reactions were not optimized and all the yields are given for purified products.
Characterization of the synthesized products were done by NMR and MS analysis. 1H and 13C NMR spectra were acquired at 298 K on a Bruker Ascend 400 MHz – Avance III HD NMR spectrometer (Bruker Corporation, Billerica, MA, USA). Chemical shifts (δ) are reported in parts per million (ppm) relative to the residual solvent signals: CDCl3 7.26 and 77.16 ppm, CD3OD 3.31 and 49.00 ppm, DMSO-d6 2.50 and 39.52 ppm for 1H and 13C NMR, respectively. […] High resolution mass (HRMS-ESI) data was reported for the calculated and experimentally […]

The mark [3] stands for this setting: 95% confidence interval in square brackets.
[4] abbreviates: IC50 [CI95%] (µM), unrounded values of the molecular formula strings file.
The mark [5] stands for this setting: IC50 [CI95%], 95% confidence interval in square brackets.

Structures are written as SMILES.

Thermotoga maritima mPPase (TmPPase), sequence (Q9S5X0 whole entry): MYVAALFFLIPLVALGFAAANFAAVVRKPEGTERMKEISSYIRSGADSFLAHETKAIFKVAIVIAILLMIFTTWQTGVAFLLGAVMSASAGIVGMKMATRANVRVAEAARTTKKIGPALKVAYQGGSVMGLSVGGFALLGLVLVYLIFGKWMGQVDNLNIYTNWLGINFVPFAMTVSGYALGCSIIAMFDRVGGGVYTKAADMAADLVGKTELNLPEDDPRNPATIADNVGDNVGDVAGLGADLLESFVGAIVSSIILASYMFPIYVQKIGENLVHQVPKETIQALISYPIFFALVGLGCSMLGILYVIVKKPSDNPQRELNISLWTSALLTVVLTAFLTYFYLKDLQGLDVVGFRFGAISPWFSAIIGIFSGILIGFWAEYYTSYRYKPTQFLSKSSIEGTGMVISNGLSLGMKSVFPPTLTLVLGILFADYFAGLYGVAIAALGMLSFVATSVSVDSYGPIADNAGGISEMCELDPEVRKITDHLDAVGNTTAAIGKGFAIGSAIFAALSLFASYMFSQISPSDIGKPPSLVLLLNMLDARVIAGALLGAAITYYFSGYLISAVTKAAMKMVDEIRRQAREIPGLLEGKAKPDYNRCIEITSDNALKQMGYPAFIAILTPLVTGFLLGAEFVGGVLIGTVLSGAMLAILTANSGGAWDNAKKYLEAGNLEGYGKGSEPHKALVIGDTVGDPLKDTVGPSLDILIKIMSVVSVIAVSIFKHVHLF

As to `Cc1nc(-c2cc(C(=O)O)no2)cs1` [Compound 5], the “LE (ligand efficiency)” value in data set [1] is recorded as 0.34. For the same compound, the “aggregation (light scattering)” value in data set [2] (50, 25, 10, 5 and 1 µM, room temperature) is reported as “no detectable aggregation at all”. Turning to `Cc1cc(C)cc(-c2cc(C(=O)Oc3ccccc3Br)no2)c1` [Compound 12k], the “LE (ligand efficiency)” value in data set [1] came out at 0.22. The “aggregation (light scattering)” value is reported as “only minor/no detectable aggregation” in data set [2] (at 10 µM, 5 µM and 1 µM); “showed aggregate formation” in data set [2] (at 50 µM and 25 µM).

Regarding `CCOC(=O)c1cc(-c2ccc(OC)c(S(=O)(=O)N3CCc4ccccc43)c2)on1` [SI-25], the “IC50 [CI95%]” value in data set [1] (setting [3]) is listed as “Inactive”. As to `CCOC(=O)c1cc(-c2ccc(OC)c(S(=O)(=O)NC3CCCC3)c2)on1` [SI-26], the “IC50 [CI95%]” value in data set [1] (setting [3]) is reported as “Inactive”. In the case of `CCOC(=O)c1cc(-c2ccc(OC)c(S(=O)(=O)N3CCCC3)c2)on1` [SI-27], in data set [1] (setting [3]), the “IC50 [CI95%]” value is on record as “Inactive”. With `COc1ccc(-c2cc(C(=O)O)no2)cc1S(=O)(=O)N1CCCC1` [SI-28], in data set [1] (setting [3]), the “IC50 [CI95%]” value is “Inactive”.

Broadly, the IC50 is the concentration needed to halve the response being measured. On to `CCOC(=O)c1cc(-c2ccc(OC)c(S(=O)(=O)Nc3ccc(F)cc3Cl)c2)on1` [SI-29], for which the concentration for half-maximal inhibition (IC50) in data set [1] (setting [4]) and in data set [1] (setting [5]) was 180 µM in each case.

Consider `CCOC(=O)c1cc(-c2ccc(OC)c(S(=O)(=O)Nc3cccc(Cl)c3)c2)on1` [SI-30], for which the “IC50 [CI95%]” value in data set [1] (setting [3]) is “Inactive”. As for `CCOC(=O)c1cc(-c2ccc(OC)c(S(=O)(=O)Nc3ccc(F)c(Cl)c3)c2)on1` [SI-31], the IC50 in data set [1] (setting [4]) and in data set [1] (setting [5]) was 58 µM throughout. Consider `CCOC(=O)c1cc(-c2ccc(OC)c(S(=O)(=O)Nc3ccc(Cl)cc3F)c2)on1` [SI-32], for which the concentration for half-maximal inhibition (IC50) in data set [1] (setting [4]) and in data set [1] (setting [5]) was 122 µM in each case. Regarding `CCOC(=O)c1cc(-c2ccc(OC)c(S(=O)(=O)Nc3ccc(Cl)cc3)c2)on1` [SI-33], the IC50 in data set [1] (setting [4]) and in data set [1] (setting [5]) was 280 µM in each case. In the case of `CC(C)(C)c1cc(CC(=O)O)cc(C(C)(C)C)c1` [SI-42], in data set [1] (setting [3]), the “IC50 [CI95%]” value is reported as “Inactive”. Still for that read-out and setting: next, `CC(C)(C)c1cc(C(N)=O)cc(C(C)(C)C)c1` [SI-43]: “Inactive”; `CC(C)(C)c1cc(C(O)CC(=O)NN)cc(C(C)(C)C)c1` (stereo not shown) [SI-44]: “Inactive”. On to `CC(C)(C)c1cc(CN)cc(C(C)(C)C)c1` [SI-45], for which the “IC50 [CI95%]” value in data set [1] (setting [3]) was “Inactive”. Consider `CC(C)(C)c1cc(CO)cc(C(C)(C)C)c1` [SI-46], for which, in data set [1] (setting [3]), the “IC50 [CI95%]” value is listed as “Inactive”. As to `CC(C)(C)c1cc(C(=O)Nc2ccccc2C(=O)O)cc(C(C)(C)C)c1` [SI-47], in data set [1] (setting [3]), the “IC50 [CI95%]” value is recorded as “Inactive”.

For `CC(C)(C)c1cc(C(=O)NCCN2CCOCC2)cc(C(C)(C)C)c1` [SI-48], the “IC50 [CI95%]” value in data set [1] (setting [3]) is recorded as “Inactive”.

Regarding `CC(C)(C)c1cc(C(=O)OCCN2CCOCC2)cc(C(C)(C)C)c1` [SI-49], the IC50 in data set [1] (setting [4]) and in data set [1] (setting [5]) was 340 µM throughout. In the case of `CCOC(=O)c1cc(-c2ccccc2)[nH]n1` [SI-50], the “IC50 [CI95%]” value in data set [1] (setting [3]) was “Inactive”. Take `CCOC(=O)c1cc(-c2ccc([N+](=O)[O-])cc2)[nH]n1` [SI-51]: the “IC50 [CI95%]” value in data set [1] (setting [3]) was “Inactive”. Turning to `O=C(O)c1csc(-c2ccc(C(F)(F)F)cc2)n1` [SI-52], in data set [1] (setting [3]), the “IC50 [CI95%]” value is listed as “Inactive”. Still for that read-out and setting: to `O=C(Oc1ccccc1Br)c1cc(-c2ccc([N+](=O)[O-])cc2)[nH]n1` [SI-53] belongs “Slightly”. On to `Cc1ccc(-c2cc(C(=O)Oc3ccccc3Br)no2)cc1C` [SI-54], for which the IC50 in data set [1] (setting [4]) is 17.4 µM; in data set [1] (setting [5]), 17 µM. Besides, the “LE (ligand efficiency)” value in data set [1] is 0.20.
